Test results taken from patent US8236841B2, “Fused heterocycle derivative” (Kyowa Hakko Kirin Co., Ltd., priority 2006, dated 2012).

Key:
CB2 receptor = biological target: T1, CB2 receptor (Rattus norvegicus, UniProt Q9QZN9); experiment: [3H]CP55940 binding assay, CB2 receptor (rat spleen membrane); conditions: [3H]CP55940 0.5 nmol/L, 25° C. 1 hour
T1 construct: from tissue; host or cells: rat spleen membranes
T1 sequence (Q9QZN9 1-360): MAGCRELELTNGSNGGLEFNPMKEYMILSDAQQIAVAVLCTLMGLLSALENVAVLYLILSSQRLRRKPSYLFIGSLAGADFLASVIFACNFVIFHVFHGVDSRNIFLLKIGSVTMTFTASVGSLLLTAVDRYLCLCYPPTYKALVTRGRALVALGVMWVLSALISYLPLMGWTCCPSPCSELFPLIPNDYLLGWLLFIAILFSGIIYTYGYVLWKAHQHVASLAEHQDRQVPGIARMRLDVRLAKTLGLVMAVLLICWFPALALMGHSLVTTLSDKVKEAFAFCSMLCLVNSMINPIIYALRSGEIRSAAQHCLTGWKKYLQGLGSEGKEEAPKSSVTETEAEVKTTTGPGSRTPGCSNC
Experimental: Cannabinoid CB1 and CB2 receptor-binding activities
The assay was performed according to a method of Hillard et al. (The Journal of Pharmacology and Experimental Therapeutics, vol. 289, p. 1427 (1999)). A rat forebrain membrane sample was prepared for use in the binding assay for CB1 receptor, and a rat spleen membrane sample was prepared for use in the binding assay for CB2 receptor. Each membrane sample (forebrain: final concentration of 0.5 mg·protein/mL, spleen: final concentration of 2 mg·protein/mL) together with each test compound and [^3H]CP55940 ((−)-cis-3-[2-hydroxy-[3,5-^3H]-4-(1,1-dimethylheptyl)-phenyl]-trans-4-(3-hydroxypropyl)cyclohexanol, manufactured by PerkinElmer, final concentration of 0.5 nmol/L), was incubated at 25° C. for 1 hour in the assay buffer solution (50 mmol/L Tris-HCl buffer solution (pH 7.4), 1 mmol/L EDTA and 3 mmol/L MgCl2) containing 0.1% bovine serum albumin. Then, the mixture was filtered through a glass filter GF/C (manufactured by Whatman) pretreated with 1% polyethyleneimine. After the glass filter was washed with the assay buffer solution containing 0.2% bovine serum albumin, the radioactivity on the glass filter was measured using a liquid scintillation counter (TRI-CARB 2700TR, manufactured by Packard). The nonspecific binding amount was defined as a binding amount in the presence of 10 μmol/L […] ((R)-(+)-[2,3-dihydro-5-methyl-3-(4-morpholinylmethyl)-pyrrolo[1,2,3-de]-1,4-benzoxazin-6-yl]-1-naphthalenylmethanone, manufactured by Tocris). The specific binding amount was presented as the difference between the total binding amount and the nonspecific binding amount. The 50% inhibitory concentration (IC50 value) of the test compound in the specific binding was determined. The Ki value of the test compound was calculated from this IC50 value and the Kd value for [^3H]CP55940 binding.

human CB2 receptor = biological target: T2, human CB2 receptor (Homo sapiens, UniProt P34972); experiment: GTPγS binding assay via human CB2 receptor; format: biochemical; conditions: membrane of human CB2 receptor stably expressing CHO-K1 cells; for EC50: read-out: EC50 value (agonist activity, [35S]GTPγS binding); for Emax: read-out: Emax value (maximum effect relative to CP55940 set to 100%)
T2 construct: expressed in transfected cells
T2 sequence (P34972 whole entry): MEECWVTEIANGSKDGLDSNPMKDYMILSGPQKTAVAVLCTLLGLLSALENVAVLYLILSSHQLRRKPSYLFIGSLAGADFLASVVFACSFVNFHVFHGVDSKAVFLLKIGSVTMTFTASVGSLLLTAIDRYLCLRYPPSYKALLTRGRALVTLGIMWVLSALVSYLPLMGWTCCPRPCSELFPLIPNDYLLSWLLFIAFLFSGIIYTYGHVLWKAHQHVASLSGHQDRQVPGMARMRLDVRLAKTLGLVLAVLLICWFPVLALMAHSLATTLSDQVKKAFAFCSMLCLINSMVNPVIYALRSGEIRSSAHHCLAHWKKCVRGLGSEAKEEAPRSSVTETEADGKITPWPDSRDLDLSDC
Experimental: GTPγS binding assay via human CB2 receptor
The assay was performed according to a method of Hillard et al. (The Journal of Pharmacology and Experimental Therapeutics, vol. 289, p. 1427 (1999)). For use as a membrane sample, a membrane fraction was prepared from human CB2 receptor stably expressing CHO-K1 cells (Nature, vol. 365, pp. 61-65 (1993)). The membrane sample (final concentration of 40 μg·protein/mL) together with each test compound and [^35S]GTPγS (manufactured by PerkinElmer, final concentration of 0.05 nmol/L), was incubated at 30° C. for 1 hour in the assay buffer solution (50 mmol/L Tris-HCl buffer solution (pH 7.4), 100 mmol/L NaCl, 1 mmol/L EDTA, 3 mmol/L MgCl2 and 0.1% bovine serum albumin) containing 20 μmol/L guanosine 5′-diphosphate (GDP). Then, the mixture was filtered through a glass filter GF/B (manufactured by Whatman). After the glass filter was washed with the assay buffer solution, the radioactivity on the glass filter was measured using a liquid scintillation counter (TRI-CARB 2700TR, manufactured by Packard). The nonspecific binding amount was defined as a binding amount in the presence of 10 μmol/L GTPγS. The specific binding amount was presented as the difference between the total binding amount and the nonspecific binding amount. The increase rate of the specific binding amount in the presence of the test compound relative to the specific binding amount in the absence of the test compound was defined as agonist activity of the test compound. The concentration which gives 50% of the maximum effect of the test compound (EC50 value) was calculated by nonlinear regression analysis of the concentration-response curve. The percentage of the maximum effect of the test compound (Emax value) was calculated based on the maximum effect of CP55940 (manufactured by Tocris) measured simultaneously set to 100%.

[1] = tested on: rats with chronic constriction nerve injury; experiment: Analgesic effect in rats with chronic constriction nerve injury (von Frey filament); format: in vivo, rat; conditions: orally administered, dose of 50 mg/kg or less, one hour after administration, von Frey filaments
From the text: Analgesic Effect of Compounds in Rats with Chronic Constriction Nerve Injury
Rats with chronic constriction nerve injury were produced by partially modifying the method of Mosconi and Kruger et al. (Pain, vol. 64, pp. 37-57 (1996)).
Male Crl:CD(SD) rats were used for the experiments. Under pentobarbital anesthesia, the sciatic nerve of the left hind limb of the rat was exfoliated, and the exfoliated region was wrapped with a polyethylene tube (trade name: Intramedic, size: PE-60, manufactured by Becton Dickinson and Company) of 2 mm in length. On days 14 to 21 after the surgery, the rats were placed in an acrylic connected cage with a wire mesh floor (900 mm (length)×210 mm (depth)×140 mm (height)) consisting of 4 cages connected in a row and allowed to acclimate to the environment for at least 20 minutes, and then, the pain was evaluated.
The von Frey filament (trade name: touch test sensory evaluator, Model number: model 58011, manufactured by Muromachi Kikai) was used to evaluate pain, and the results were calculated as a pain threshold. That is, by using a von Frey filament of different stimulus intensity, stimulation was given to the plantar surface of the injured side of rats with chronic constriction nerve injury, and the stimulus intensity to cause paw withdrawal response was obtained. Then, the 50% pain threshold (Paw withdrawal threshold) (g) was calculated by the up down method of Dixon [Annual Review of Pharmacology and Toxicology, vol. 20, pp. 441-462 (1980)].
In the evaluation of the test compound, rats with 50% pain threshold of less than 4 g were used, and the test compound was dissolved in a 0.5% aqueous methyl cellulose solution and orally administered at a dose of 5 mL/kg. One hour after the administration, the pain threshold was measured using von Frey filaments.

SMILES | Ki (CB2 receptor) [µM] | EC50 (human CB2 receptor) [µM] | Emax (human CB2 receptor) [%] | 50% pain threshold (Paw withdrawal threshold) [1]
CCN(CC)C(=O)c1ccn2c(CC3CCCCC3)c(C(C)(C)C)nc2c1 [Compound 1, 2-tert-Butyl-3-cyclohexylmethyl-N,N-diethylimidazo[1,2-a]-pyridine-7-carboxamide] | < 1 | < 1 | > 30 | 
CCN(CC)C(=O)c1ccn2c(CC3CCOCC3)c(C(C)(C)C)nc2c1 [Compound 2, 2-tert-Butyl-N,N-diethyl-3-(tetrahydropyran-4-ylmethyl)-imidazo[1,2-a]pyridine-7-carboxamide] | < 1 | < 1 | > 30 | significantly increased the pain threshold
CCN(CC)C(=S)c1ccn2c(CC3CCOCC3)c(C(C)(C)C)nc2c1 [Compound 8, 2-tert-Butyl-N,N-diethyl-3-(tetrahydropyran-4-ylmethyl)-imidazo[1,2-a]pyridine-7-carbothioamide] | < 1 | < 1 | > 30 | 
CCN(CC)C(=O)c1cc2nc(C(C)(C)C)c(CC3CCCCC3)n2cn1 [Compound 14, 2-tert-Butyl-3-cyclohexylmethyl-N,N-diethyl-imidazo[1,2-c]-pyrimidine-7-carboxamide] | < 1 | < 1 | > 30 | 
CCN(CC)C(=O)c1cc2nc(C(C)(C)C)c(CC3CCOCC3)n2cn1 [Compound 15, 2-tert-Butyl-N,N-diethyl-3-(tetrahydropyran-4-ylmethyl)-imidazo[1,2-c]pyrimidine-7-carboxamide] | < 1 | < 1 | > 30 | significantly increased the pain threshold
CCN(CC)C(=S)c1cc2nc(C(C)(C)C)c(CC3CCOCC3)n2cn1 [Compound 16, 2-tert-Butyl-N,N-diethyl-3-(tetrahydropyran-4-ylmethyl)-imidazo[1,2-c]pyrimidine-7-carbothioamide] | < 1 | < 1 | > 30 | 
CC(C)N(C)C(=O)c1ccn2c(CC3CCOCC3)c(C(C)(C)C)nc2c1 [Compound 17, 2-tert-Butyl-N-isopropyl-N-methyl-3-(tetrahydropyran-4-ylmethyl)-imidazo[1,2-a]pyridine-7-carboxamide] | < 1 | < 1 | > 30 | significantly increased the pain threshold
CC(C)CN(C)C(=O)c1ccn2c(CC3CCOCC3)c(C(C)(C)C)nc2c1 [Compound 18, 2-tert-Butyl-N-isobutyl-N-methyl-3-(tetrahydropyran-4-ylmethyl)imidazo[1,2-a]pyridine-7-carboxamide] | < 1 | < 1 | > 30 | significantly increased the pain threshold
CCN(CC)C(=O)c1ccn2c(CC3CCCCO3)c(C(C)(C)C)nc2c1 (centres unmarked) [Compound 27, 2-tert-Butyl-N,N-diethyl-3-(tetrahydropyran-2-ylmethyl)-imidazo[1,2-a]pyridine-7-carboxamide] | < 1 |  |  | 
